Laboratory results taken from ChEMBL document CHEMBL1201862, “PubChem BioAssay data set” (2004).
Activity calls are given as the source filed them.

What was measured:
Escherichia coli = assay: microbe, parasite or virus in culture
[1] = biological target: T1, Microphthalmia-associated transcription factor (Homo sapiens, UniProt O75030); assay: TRPM1 promoter luciferase signal decrease, dose response, MITF inhibitor project, cell-based, SK-MEL-5, cherry-picked, set 3 (AID 493073); format: functional
T1 sequence (O75030 whole entry): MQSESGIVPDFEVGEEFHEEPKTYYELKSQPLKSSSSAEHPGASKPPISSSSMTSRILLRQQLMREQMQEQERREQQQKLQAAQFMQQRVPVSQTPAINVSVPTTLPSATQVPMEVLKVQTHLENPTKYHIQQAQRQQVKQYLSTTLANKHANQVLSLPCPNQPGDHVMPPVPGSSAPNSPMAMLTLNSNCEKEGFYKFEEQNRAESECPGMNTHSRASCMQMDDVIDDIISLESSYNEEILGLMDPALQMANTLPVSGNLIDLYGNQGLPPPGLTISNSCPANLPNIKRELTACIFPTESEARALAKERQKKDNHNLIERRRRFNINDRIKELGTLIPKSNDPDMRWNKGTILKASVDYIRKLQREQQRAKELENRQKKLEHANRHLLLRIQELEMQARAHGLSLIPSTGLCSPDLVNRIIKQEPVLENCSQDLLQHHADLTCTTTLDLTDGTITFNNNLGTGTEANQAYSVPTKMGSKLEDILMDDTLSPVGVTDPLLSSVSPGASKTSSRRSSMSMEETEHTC

[2] = biological target: T2, Replicative DNA helicase DnaB (Mycobacterium tuberculosis, UniProt P9WMR3); assay: DnaB intein splicing inhibitors, dose response, biochemical, cell-free fluorescence (AID 449749); format: functional
T2 sequence (P9WMR3 whole entry): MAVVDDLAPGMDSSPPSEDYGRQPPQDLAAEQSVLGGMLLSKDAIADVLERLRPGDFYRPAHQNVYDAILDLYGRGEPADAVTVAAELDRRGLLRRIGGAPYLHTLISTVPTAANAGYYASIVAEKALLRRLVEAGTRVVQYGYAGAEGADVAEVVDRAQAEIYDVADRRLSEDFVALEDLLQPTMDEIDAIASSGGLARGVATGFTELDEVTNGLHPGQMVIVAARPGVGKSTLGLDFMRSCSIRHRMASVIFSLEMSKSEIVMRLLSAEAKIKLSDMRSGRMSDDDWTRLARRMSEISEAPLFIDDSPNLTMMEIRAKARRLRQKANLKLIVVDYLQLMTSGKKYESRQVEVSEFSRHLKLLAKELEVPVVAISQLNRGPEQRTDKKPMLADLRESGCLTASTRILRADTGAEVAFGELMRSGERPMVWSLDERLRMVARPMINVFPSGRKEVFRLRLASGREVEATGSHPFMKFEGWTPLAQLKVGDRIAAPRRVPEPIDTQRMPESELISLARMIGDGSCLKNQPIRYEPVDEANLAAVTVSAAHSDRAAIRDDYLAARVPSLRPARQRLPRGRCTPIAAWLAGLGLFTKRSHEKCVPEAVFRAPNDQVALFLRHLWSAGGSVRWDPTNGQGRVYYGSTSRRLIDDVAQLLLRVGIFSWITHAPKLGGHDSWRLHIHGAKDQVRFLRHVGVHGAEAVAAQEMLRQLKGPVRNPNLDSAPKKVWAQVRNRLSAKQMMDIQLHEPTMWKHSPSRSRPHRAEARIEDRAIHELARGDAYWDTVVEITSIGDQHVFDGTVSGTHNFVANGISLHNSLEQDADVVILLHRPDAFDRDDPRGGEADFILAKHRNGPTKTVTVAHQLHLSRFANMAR

[3] = biological target: T3, Apoptotic protease-activating factor 1 (Homo sapiens, UniProt O14727); format: functional
T3 sequence (O14727 whole entry): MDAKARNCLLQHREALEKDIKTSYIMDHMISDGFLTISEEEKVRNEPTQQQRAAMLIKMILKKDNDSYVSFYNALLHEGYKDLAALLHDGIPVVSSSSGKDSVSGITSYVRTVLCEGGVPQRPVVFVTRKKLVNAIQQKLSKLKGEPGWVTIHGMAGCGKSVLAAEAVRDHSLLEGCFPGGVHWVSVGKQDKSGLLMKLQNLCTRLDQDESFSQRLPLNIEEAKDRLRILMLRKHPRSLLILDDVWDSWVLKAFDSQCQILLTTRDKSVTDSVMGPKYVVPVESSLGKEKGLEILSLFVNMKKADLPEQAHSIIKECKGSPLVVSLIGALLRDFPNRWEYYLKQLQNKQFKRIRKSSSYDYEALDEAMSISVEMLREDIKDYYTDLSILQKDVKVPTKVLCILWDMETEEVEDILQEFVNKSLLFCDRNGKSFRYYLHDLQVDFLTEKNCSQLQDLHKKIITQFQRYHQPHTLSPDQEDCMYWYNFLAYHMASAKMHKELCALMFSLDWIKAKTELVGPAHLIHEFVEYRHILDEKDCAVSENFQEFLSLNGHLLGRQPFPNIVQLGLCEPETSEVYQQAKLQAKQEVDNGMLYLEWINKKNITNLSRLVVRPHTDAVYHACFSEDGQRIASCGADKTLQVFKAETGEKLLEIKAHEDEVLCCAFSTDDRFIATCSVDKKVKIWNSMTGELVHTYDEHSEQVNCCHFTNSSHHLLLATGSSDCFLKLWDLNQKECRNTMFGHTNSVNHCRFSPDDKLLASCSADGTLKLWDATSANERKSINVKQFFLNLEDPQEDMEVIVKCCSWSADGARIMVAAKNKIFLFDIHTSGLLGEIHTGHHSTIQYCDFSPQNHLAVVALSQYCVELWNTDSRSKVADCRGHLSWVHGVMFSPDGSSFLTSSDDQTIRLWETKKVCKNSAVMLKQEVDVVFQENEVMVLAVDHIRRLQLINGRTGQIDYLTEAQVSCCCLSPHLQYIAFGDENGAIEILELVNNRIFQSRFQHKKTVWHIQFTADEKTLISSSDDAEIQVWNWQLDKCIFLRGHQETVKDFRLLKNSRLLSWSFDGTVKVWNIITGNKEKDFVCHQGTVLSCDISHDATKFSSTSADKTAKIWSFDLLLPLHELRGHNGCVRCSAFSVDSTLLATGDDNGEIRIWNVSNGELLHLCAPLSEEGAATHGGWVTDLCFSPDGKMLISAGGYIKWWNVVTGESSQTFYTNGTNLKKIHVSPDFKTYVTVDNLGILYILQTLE

Protein RecA = biological target: T4, Protein RecA (Mycobacterium tuberculosis, UniProt P9WHJ3); assay: Fluorescence Cell-Free Homogeneous Dose Retest to Identify Inhibitors of RecA-Intein Splicing Activity. [Related pubchem assays (depositor defined):AID2097, AID2223, AID489010, AID492950]; format: functional
T4 sequence (P9WHJ3 whole entry): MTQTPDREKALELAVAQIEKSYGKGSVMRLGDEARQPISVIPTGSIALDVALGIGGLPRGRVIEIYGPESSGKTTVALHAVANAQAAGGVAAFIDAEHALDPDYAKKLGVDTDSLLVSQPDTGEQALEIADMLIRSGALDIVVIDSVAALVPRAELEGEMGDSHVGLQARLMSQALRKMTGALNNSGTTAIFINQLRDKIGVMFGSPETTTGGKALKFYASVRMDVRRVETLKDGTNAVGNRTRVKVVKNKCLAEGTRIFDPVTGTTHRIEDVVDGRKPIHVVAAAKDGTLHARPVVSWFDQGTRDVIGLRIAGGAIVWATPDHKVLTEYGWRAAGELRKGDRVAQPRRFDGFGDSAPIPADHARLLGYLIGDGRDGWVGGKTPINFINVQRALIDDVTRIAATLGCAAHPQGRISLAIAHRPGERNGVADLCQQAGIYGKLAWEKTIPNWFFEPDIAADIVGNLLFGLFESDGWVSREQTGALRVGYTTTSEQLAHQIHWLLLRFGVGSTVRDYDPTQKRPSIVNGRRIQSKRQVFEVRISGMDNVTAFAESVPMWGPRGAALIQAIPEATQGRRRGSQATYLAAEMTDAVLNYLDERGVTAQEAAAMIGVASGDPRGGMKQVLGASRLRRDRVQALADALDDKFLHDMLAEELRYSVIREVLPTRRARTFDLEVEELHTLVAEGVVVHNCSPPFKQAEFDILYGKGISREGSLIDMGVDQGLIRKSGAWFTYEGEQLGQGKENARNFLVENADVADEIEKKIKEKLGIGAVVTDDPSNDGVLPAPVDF

A-375 = assay: MITF: Counter assay: A375 proliferation Measured in Cell-Based System Using Plate Reader - 2084-03_Inhibitor_Dose_DryPowder_Activity. [Related pubchem assays (depositor defined):AID488944]; format: functional; conditions: Homo sapiens
[4] = Luminescence Cell-Based Dose Retest to Confirm Inhibitors of Cancer Stem Cells. [Related pubchem assays (depositor defined):AID2717, AID2721]; format: functional; conditions: Homo sapiens
[5] = biological target: Delta-type opioid receptor (Homo sapiens, UniProt P41143); assay: Counterscreen for agonists of heterodimerization of the mu 1 (OPRM1) and delta 1 (OPRD1) opioid receptors: Luminescence-based cell-based high throughput dose response assay to identify agonists of OPRD1 homodimerization. [Related pubchem assays (depositor defined):AID504326, AID504355, AID504692, AID504904, AID504905]; format: functional
Mu-type opioid receptor = Mu-type opioid receptor (Homo sapiens, UniProt P35372); assay: Counterscreen for agonists of heterodimerization of the mu 1 (OPRM1) and delta 1 (OPRD1) opioid receptors: Luminescence-based cell-based high throughput dose response assay to identify agonists of OPRM1 homodimerization.; format: functional;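 note: U2OS cells expressing OPRM1 and beta-arrestin as split beta-galactosidase partners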
[6] = biological target: 5-hydroxytryptamine receptor 5A (Homo sapiens, UniProt P47898); assay: Counterscreen for agonists of OPRM1-OPRD1 heterodimerization: luminescence-based cell-based high throughput dose response assay to identify agonists of 5-hydroxytryptamine (serotonin) 5A receptor (HTR5A). [Related pubchem assays (depositor defined):AID504326, AID504355, AID504692, AID504904, AID504905]; format: functional
Chain of 5-hydroxytryptamine receptor 5A (P47898 whole entry): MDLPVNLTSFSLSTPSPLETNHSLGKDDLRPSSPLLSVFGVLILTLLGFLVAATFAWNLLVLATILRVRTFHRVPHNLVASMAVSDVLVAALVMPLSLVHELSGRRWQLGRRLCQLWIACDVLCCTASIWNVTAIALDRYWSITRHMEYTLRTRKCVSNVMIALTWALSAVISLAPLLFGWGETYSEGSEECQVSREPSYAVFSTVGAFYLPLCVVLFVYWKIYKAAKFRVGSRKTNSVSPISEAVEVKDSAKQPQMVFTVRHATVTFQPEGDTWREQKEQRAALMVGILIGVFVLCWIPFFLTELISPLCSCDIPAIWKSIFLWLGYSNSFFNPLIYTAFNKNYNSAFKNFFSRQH

Chain of Mu-type opioid receptor (P35372 whole entry): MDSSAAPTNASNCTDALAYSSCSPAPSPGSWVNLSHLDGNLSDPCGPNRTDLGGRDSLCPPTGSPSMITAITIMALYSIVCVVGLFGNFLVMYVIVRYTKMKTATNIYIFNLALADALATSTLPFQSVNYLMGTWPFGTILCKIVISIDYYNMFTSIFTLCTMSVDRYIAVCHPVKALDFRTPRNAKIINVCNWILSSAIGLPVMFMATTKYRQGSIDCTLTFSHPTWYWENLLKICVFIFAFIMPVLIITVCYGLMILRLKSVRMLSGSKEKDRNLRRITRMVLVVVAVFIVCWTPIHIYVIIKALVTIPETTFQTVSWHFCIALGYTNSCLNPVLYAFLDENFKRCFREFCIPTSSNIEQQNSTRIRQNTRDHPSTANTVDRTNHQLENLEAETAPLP
Chain of Delta-type opioid receptor (P41143 whole entry): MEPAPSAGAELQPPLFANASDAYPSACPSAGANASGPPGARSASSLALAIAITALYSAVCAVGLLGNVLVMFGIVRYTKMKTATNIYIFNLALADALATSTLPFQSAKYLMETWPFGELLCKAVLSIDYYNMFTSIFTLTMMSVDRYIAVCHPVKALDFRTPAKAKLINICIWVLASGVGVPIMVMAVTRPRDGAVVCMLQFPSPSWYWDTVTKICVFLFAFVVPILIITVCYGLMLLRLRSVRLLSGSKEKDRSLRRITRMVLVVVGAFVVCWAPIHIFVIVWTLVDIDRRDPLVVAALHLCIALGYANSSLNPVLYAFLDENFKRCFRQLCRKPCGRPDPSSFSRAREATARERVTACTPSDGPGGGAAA

CC1(C)CC(=O)C/C(=N\NC(=O)CCc2ccc(S(=O)(=O)N3CCOCC3)cc2)C1
AC50 (Escherichia coli): 44.6 µM (active)

CC1=C(CC(=O)c2ccccc2)C(=O)c2ccccc2C1=O
AC50 [1]: 7.15 µM (active)
AC50 [2]: 18.7 µM (active)
IC50 [3]: 28.8 µM (active)
EC50 (Protein RecA): 3.45 µM (active)
AC50 (A-375): 42.7 µM (active)

CC1(NC(=O)CC(c2ccccc2)(c2ccccc2)c2ccccc2)CCN(CCCc2ccccc2)C1=O (stereo not given)
AC50 [4]: 5.42 µM (active)
EC50 [5]: > 92.5 µM (inactive)
EC50 (Mu-type opioid receptor): > 92.5 µM (inactive)
EC50 [6]: > 92.5 µM (inactive)
